Results as given in patent US9061984B2 (University of Louisville Research Foundation, Inc., priority 2008, dated 2015).
Like-named read-outs stand apart in the source and are kept apart here.

System: several cell lines (Panel/Cell Line)
Test: GI50, TGI and LC50 of compound II-21 for several cell lines (Table 12)

Question: How did the GI50 (48 h, Leukemia, SR, 48-h exposure) turn out when `C(=N/Nc1ncnc2sc3c(c12)CCCC3)/c1ccccn1` [II-21] was run?
Answer: 0.368 µM

Question: What about the GI50 (48 h, Melanoma, M14, 48-h exposure) of the same compound?
Answer: 0.246 µM

Question: What about the GI50 (48 h, Prostate Cancer, PC-3, 48-h exposure) of the same compound?
Answer: 0.431 µM

Question: What about the CC50 (48 h, read-out: LC50 (M), Leukemia, SR, 48-h exposure) of the same compound?
Answer: > 0.0001 M

Question: And the CC50 (48 h, read-out: LC50 (M), Melanoma, M14, 48-h exposure)?
Answer: 3.34e-05 M

Question: And the CC50 (48 h, read-out: LC50 (M), Prostate Cancer, PC-3, 48-h exposure)?
Answer: > 0.0001 M

Question: What about the “TGI” value (Breast Cancer, BT-549, 48-h exposure) of the same compound?
Answer: 28.7 µM

Question: What about the “TGI” value (Breast Cancer, HS 578T, 48-h exposure) of the same compound?
Answer: 23.9 µM

Question: What about the “TGI” value (Breast Cancer, MCF7, 48-h exposure) of the same compound?
Answer: 15.3 µM

Question: What about the “TGI” value (Breast Cancer, MDA-MB-231/ATCC, 48-h exposure) of the same compound?
Answer: 29.7 µM

Question: What about the “TGI” value (Breast Cancer, MDA-MB-468, 48-h exposure) of the same compound?
Answer: 0.505 µM

Question: And the “TGI” value (Breast Cancer, T-47D, 48-h exposure)?
Answer: 28 µM

Question: What about the “TGI” value (CNS Cancer, SF-268, 48-h exposure) of the same compound?
Answer: 15.1 µM

Question: And the “TGI” value (CNS Cancer, SF-295, 48-h exposure)?
Answer: 12.1 µM

Question: What about the “TGI” value (CNS Cancer, SF-539, 48-h exposure) of the same compound?
Answer: 3.84 µM

Question: And the “TGI” value (CNS Cancer, SNB-19, 48-h exposure)?
Answer: 34.1 µM

Question: And the “TGI” value (CNS Cancer, SNB-75, 48-h exposure)?
Answer: 14.7 µM

Question: What about the “TGI” value (CNS Cancer, U251, 48-h exposure) of the same compound?
Answer: 12.1 µM

Question: And the “TGI” value (Colon Cancer, COLO 205, 48-h exposure)?
Answer: 14.7 µM

Question: And the “TGI” value (Colon Cancer, HCC-2998, 48-h exposure)?
Answer: 22.9 µM

Question: And the “TGI” value (Colon Cancer, HCT-15, 48-h exposure)?
Answer: 27 µM

Question: And the “TGI” value (Colon Cancer, HCT-116, 48-h exposure)?
Answer: 14.2 µM

Question: What about the “TGI” value (Colon Cancer, HT29, 48-h exposure) of the same compound?
Answer: 15.1 µM

Question: And the “TGI” value (Colon Cancer, KM12, 48-h exposure)?
Answer: 12.7 µM

Question: And the “TGI” value (Colon Cancer, SW-620, 48-h exposure)?
Answer: 17.9 µM

Question: And the GI50 (Homo sapiens, 786-0, 48 h, Renal Cancer, 786-0, 48-h exposure)?
Answer: 0.333 µM

Question: And the CC50 (Homo sapiens, 786-0, 48 h, read-out: LC50 (M), Renal Cancer, 786-0, 48-h exposure)?
Answer: 4.44e-05 M

Question: What about the GI50 (Homo sapiens, A498, 48 h, Renal Cancer, A498, 48-h exposure) of the same compound?
Answer: 0.428 µM

Question: What about the CC50 (Homo sapiens, A498, 48 h, read-out: LC50 (M), Renal Cancer, A498, 48-h exposure) of the same compound?
Answer: 3.72e-05 M

Question: And the GI50 (Homo sapiens, A549, 48 h, Non-Small Cell Lung Cancer, A549/ATCC, 48-h exposure)?
Answer: 0.389 µM

Question: And the CC50 (Homo sapiens, A549, 48 h, read-out: LC50 (M), Non-Small Cell Lung Cancer, A549/ATCC, 48-h exposure)?
Answer: 7.13e-05 M

Question: And the GI50 (Homo sapiens, ACHN, 48 h, Renal Cancer, 48-h exposure)?
Answer: 0.313 µM

Question: And the CC50 (Homo sapiens, ACHN, 48 h, read-out: LC50 (M), Renal Cancer, ACHN, 48-h exposure)?
Answer: > 0.0001 M

Question: What about the GI50 (Homo sapiens, BT-549, 48 h, Breast Cancer, BT-549, 48-h exposure) of the same compound?
Answer: 0.394 µM

Question: And the CC50 (Homo sapiens, BT-549, 48 h, read-out: LC50 (M), Breast Cancer, BT-549, 48-h exposure)?
Answer: > 0.0001 M

Question: What about the GI50 (Homo sapiens, CAKI-1, 48 h, Renal Cancer, CAKI-1, 48-h exposure) of the same compound?
Answer: 0.313 µM

Question: What about the CC50 (Homo sapiens, CAKI-1, 48 h, read-out: LC50 (M), Renal Cancer, CAKI-1, 48-h exposure) of the same compound?
Answer: > 0.0001 M

Question: And the GI50 (Homo sapiens, CCRF-CEM, 48 h, Leukemia, 48-h exposure)?
Answer: 0.242 µM

Question: And the CC50 (Homo sapiens, CCRF-CEM, 48 h, read-out: LC50 (M), Leukemia, CCRF-CEM, 48-h exposure)?
Answer: > 0.0001 M

Question: What about the GI50 (Homo sapiens, COLO 205, 48 h, Colon Cancer, COLO 205, 48-h exposure) of the same compound?
Answer: 0.315 µM

Question: And the CC50 (Homo sapiens, COLO 205, 48 h, read-out: LC50 (M), Colon Cancer, COLO 205, 48-h exposure)?
Answer: 5.45e-05 M

Question: And the GI50 (Homo sapiens, DU-145, 48 h, Prostate Cancer, DU-145, 48-h exposure)?
Answer: 0.41 µM

Question: And the CC50 (Homo sapiens, DU-145, 48 h, read-out: LC50 (M), Prostate Cancer, DU-145, 48-h exposure)?
Answer: 5.16e-05 M

Question: What about the GI50 (Homo sapiens, EKVX, 48 h, Non-Small Cell Lung Cancer, 48-h exposure) of the same compound?
Answer: 0.317 µM

Question: What about the CC50 (Homo sapiens, EKVX, 48 h, read-out: LC50 (M), Non-Small Cell Lung Cancer, EKVX, 48-h exposure) of the same compound?
Answer: > 0.0001 M

Question: What about the GI50 (Homo sapiens, HCC 2998, 48 h, Colon Cancer, HCC-2998, 48-h exposure) of the same compound?
Answer: 10 µM

Question: And the CC50 (Homo sapiens, HCC 2998, 48 h, read-out: LC50 (M), Colon Cancer, HCC-2998, 48-h exposure)?
Answer: 5.26e-05 M

Question: What about the GI50 (Homo sapiens, HCT-15, 48 h, Colon Cancer, HCT-15, 48-h exposure) of the same compound?
Answer: 0.45 µM

Question: And the CC50 (Homo sapiens, HCT-15, 48 h, read-out: LC50 (M), Colon Cancer, HCT-15, 48-h exposure)?
Answer: > 0.0001 M

Question: And the GI50 (Homo sapiens, HCT-116, 48 h, Colon Cancer, HCT-116, 48-h exposure)?
Answer: 0.166 µM

Question: And the CC50 (Homo sapiens, HCT-116, 48 h, read-out: LC50 (M), Colon Cancer, HCT-116, 48-h exposure)?
Answer: 6.74e-05 M

Question: What about the GI50 (Homo sapiens, HL-60, 48 h, Leukemia, HL-60(TB), 48-h exposure) of the same compound?
Answer: 0.12 µM

Question: What about the CC50 (Homo sapiens, HL-60, 48 h, read-out: LC50 (M), Leukemia, HL-60(TB), 48-h exposure) of the same compound?
Answer: > 0.0001 M

Question: What about the GI50 (Homo sapiens, HOP-62, 48 h, Non-Small Cell Lung Cancer, HOP-62, 48-h exposure) of the same compound?
Answer: 0.395 µM

Question: What about the CC50 (Homo sapiens, HOP-62, 48 h, read-out: LC50 (M), Non-Small Cell Lung Cancer, HOP-62, 48-h exposure) of the same compound?
Answer: > 0.0001 M

Question: And the GI50 (Homo sapiens, HOP-92, 48 h, Non-Small Cell Lung Cancer, HOP-92, 48-h exposure)?
Answer: 0.417 µM

Question: And the CC50 (Homo sapiens, HOP-92, 48 h, read-out: LC50 (M), Non-Small Cell Lung Cancer, HOP-92, 48-h exposure)?
Answer: > 0.0001 M

Question: And the GI50 (Homo sapiens, HT-29, 48 h, Colon Cancer, HT29, 48-h exposure)?
Answer: 0.18 µM

Question: And the CC50 (Homo sapiens, HT-29, 48 h, read-out: LC50 (M), Colon Cancer, HT29, 48-h exposure)?
Answer: 4.49e-05 M

Question: And the GI50 (Homo sapiens, Hs-578T, 48 h, Breast Cancer, HS 578T, 48-h exposure)?
Answer: 0.748 µM

Question: And the CC50 (Homo sapiens, Hs-578T, 48 h, read-out: LC50 (M), Breast Cancer, HS 578T, 48-h exposure)?
Answer: > 0.0001 M

Question: What about the GI50 (Homo sapiens, IGROV-1, 48 h, Ovarian Cancer, IGROV1, 48-h exposure) of the same compound?
Answer: 0.45 µM

Question: And the CC50 (Homo sapiens, IGROV-1, 48 h, read-out: LC50 (M), Ovarian Cancer, IGROV1, 48-h exposure)?
Answer: > 0.0001 M

Question: What about the GI50 (Homo sapiens, K562, 48 h, Leukemia, K-562, 48-h exposure) of the same compound?
Answer: 0.284 µM

Question: What about the CC50 (Homo sapiens, K562, 48 h, read-out: LC50 (M), Leukemia, K-562, 48-h exposure) of the same compound?
Answer: > 0.0001 M

Question: And the GI50 (Homo sapiens, KM12, 48 h, Colon Cancer, KM12, 48-h exposure)?
Answer: 0.515 µM

Question: And the CC50 (Homo sapiens, KM12, 48 h, read-out: LC50 (M), Colon Cancer, KM12, 48-h exposure)?
Answer: 3.81e-05 M

Question: And the GI50 (Homo sapiens, LOX IMVI, 48 h, Melanoma, 48-h exposure)?
Answer: 0.256 µM

Question: What about the CC50 (Homo sapiens, LOX IMVI, 48 h, read-out: LC50 (M), Melanoma, LOX IMVI, 48-h exposure) of the same compound?
Answer: 3.48e-05 M

Question: What about the GI50 (Homo sapiens, MCF7, 48 h, Breast Cancer, MCF7, 48-h exposure) of the same compound?
Answer: 0.336 µM

Question: What about the CC50 (Homo sapiens, MCF7, 48 h, read-out: LC50 (M), Breast Cancer, MCF7, 48-h exposure) of the same compound?
Answer: 8e-05 M

Question: And the GI50 (Homo sapiens, MDA-MB-231, 48 h, Breast Cancer, MDA-MB-231/ATCC, 48-h exposure)?
Answer: 0.603 µM

Question: What about the CC50 (Homo sapiens, MDA-MB-231, 48 h, read-out: LC50 (M), Breast Cancer, MDA-MB-231/ATCC, 48-h exposure) of the same compound?
Answer: > 0.0001 M

Question: What about the GI50 (Homo sapiens, MDA-MB-435, 48 h, Melanoma, MDA-MB-435, 48-h exposure) of the same compound?
Answer: 0.477 µM

Question: What about the CC50 (Homo sapiens, MDA-MB-435, 48 h, read-out: LC50 (M), Melanoma, MDA-MB-435, 48-h exposure) of the same compound?
Answer: > 0.0001 M

Question: What about the GI50 (Homo sapiens, MDA-MB-468, 48 h, Breast Cancer, MDA-MB-468, 48-h exposure) of the same compound?
Answer: 0.2 µM

Question: What about the CC50 (Homo sapiens, MDA-MB-468, 48 h, read-out: LC50 (M), Breast Cancer, MDA-MB-468, 48-h exposure) of the same compound?
Answer: 4.1e-05 M

Question: And the GI50 (Homo sapiens, MOLT-4, 48 h, Leukemia, MOLT-4, 48-h exposure)?
Answer: 0.261 µM

Question: What about the CC50 (Homo sapiens, MOLT-4, 48 h, read-out: LC50 (M), Leukemia, MOLT-4, 48-h exposure) of the same compound?
Answer: > 0.0001 M

Question: And the GI50 (Homo sapiens, Malme-3M, 48 h, Melanoma, 48-h exposure)?
Answer: 0.275 µM

Question: What about the CC50 (Homo sapiens, Malme-3M, 48 h, read-out: LC50 (M), Melanoma, MALME-3M, 48-h exposure) of the same compound?
Answer: 5.14e-05 M

Question: What about the GI50 (Homo sapiens, NCI-H23, 48 h, Non-Small Cell Lung Cancer, NCI-H23, 48-h exposure) of the same compound?
Answer: 0.705 µM

Question: What about the CC50 (Homo sapiens, NCI-H23, 48 h, read-out: LC50 (M), Non-Small Cell Lung Cancer, NCI-H23, 48-h exposure) of the same compound?
Answer: > 0.0001 M

Question: What about the GI50 (Homo sapiens, NCI-H226, 48 h, Non-Small Cell Lung Cancer, NCI-H226, 48-h exposure) of the same compound?
Answer: 0.385 µM

Question: And the CC50 (Homo sapiens, NCI-H226, 48 h, read-out: LC50 (M), Non-Small Cell Lung Cancer, NCI-H226, 48-h exposure)?
Answer: > 0.0001 M

Question: And the GI50 (Homo sapiens, NCI-H322M, 48 h)?
Answer: 0.216 µM

Question: What about the CC50 (Homo sapiens, NCI-H322M, 48 h, read-out: LC50 (M)) of the same compound?
Answer: > 0.0001 M

Question: And the GI50 (Homo sapiens, NCI-H460, 48 h, Non-Small Cell Lung Cancer, NCI-H460, 48-h exposure)?
Answer: 0.304 µM

Question: And the CC50 (Homo sapiens, NCI-H460, 48 h, read-out: LC50 (M), Non-Small Cell Lung Cancer, NCI-H460, 48-h exposure)?
Answer: 3.11e-05 M
